Assay results published in US12203070B2, “Gene knockout of NRF2 for treatment of cancer” (Christiana Care Gene Editing Institute , Inc., priority 2019, dated 2025).
Where “and” joins values, the source holds several entries; their conditions need not be identical. Identical values can stand only once. Entries after “also recorded” stand apart in the source; their conditions may differ.

Assays:
[1] = tested on: NRF2 gene; experiment: TIDE indel analysis of bulk sorted eGFP+ A549 cells transfected with pX458 CRISPR/Cas9 constructs; type: cell-based, human; details: bulk sorted eGFP+ A549 population, pX458 plasmid
Procedure: A549 cells were transfected at a concentration of 5×10^5 cells/100 μl in 4 mm gap cuvette (BioExpress, Kaysville, UT, USA). NRF2 targeting pX458 constructs were separately electroporated (250 V. LV, 13 ms pulse length, 2 pulses, 1 s interval) into A549 cells using a Bio-Rad Gene Pulser XCell Electroporation System (Bio-Rad Laboratories, Hercules, CA, USA). Cells were then recovered in 6-well plates with complete growth media at 37° C. for 72 hours prior to sorting. […] Clones were expanded and transferred to larger plates as the individual clones reached confluence, with DNA isolation occurring when cells reached confluence in a six-well plate (1×10^6 cells/mL).
CRISPR/Cas9 targeted A549 clones were PCR amplified (forward 5′-[…] (SEQ ID NO: 5), reverse 5′-[…] (SEQ ID NO: 6)) using Amplitaq Gold Fast PCR Master Mix (Applied Biosystems, Foster City, CA). Briefly, template DNA, primers, water and master mix were combined and cycled: 95° C. for 10 minutes, (96° C. for 3 s, 60° C. for 3 s, 68° C. for 5 s)×35 cycles, and 72° C. for 10 s. The 402 bp products were purified (Qiagen, Hilden, Germany) and Sanger sequenced using the forward PCR primer. Clonal allelic analyses of individual A549 cell clones were analyzed by the software program, Tracking of Indels by DEcomposition (TIDE), to determine the individual sub-sequences within the multi-peaked breakdown product after CRISPR/Cas9 activity. […]

[2] = tested on: NRF2 knockout A549 (2-11) tumors; experiment: Xenograft mouse model, NRF2 knockout A549 (2-11) tumors; type: in vivo, athymic nude mice; details: for tumor growth: 16 days
Procedure: The animal trials presented herein were carried out at Washington Biotech Inc., Simpsonville Maryland, under animal use and care protocol (SOP 505, SOP 520, SOP 522, SOP 1610, SOP1650) approved by the animal care and use committee of Washington Biotechnology Inc. (AAALAC accredited Animal Welfare Assurance number A4192-01). The human xenograft model was established using methodology reported previously. […] et al., Biomed Res. Int. 2015, 1-17 (2015). Female athymic nude mice (Envigo, 5-6 weeks old) were used in this study. Approximately 5×10^6 cells (wild type A549 or homozygous knockout (clonal expansion 2-11)) suspended in PBS with 20% Matrigel were injected subcutaneously into right flank of each mouse. Tumor volume was measured three times a week with a digital caliper once palpable, and calculated using the formula, tumor size=ab^2/2, where 'a' is the larger and 'b' is the smaller of the two dimensions. When tumors grew up to a mean volume of around 100 mm^3, A549 tumor bearing mice or A549-2-11 tumor bearing mice were randomly divided into 7 groups (N=5 for each group) respectively and subject to dose/regimen-finding study. […] Tumor volume and body weight was closely monitored over time. After 16 days, the animals were sacrificed, with tumor removed, weighed and processed for molecular analysis. Mice were euthanized. The data were expressed as mean±SD. Student's t-test and one-way or two-way ANOVA was used to assess the significance of difference. […] A549 xenografts were resected on day 16, snap frozen in liquid nitrogen and stored in -80° C. until usage. All immunofluorescence staining was performed as previously described. Wang et al., Investig. Opthalmology Vis. Sci. 58, 3896 (2017). Briefly, tumors were embedded in Optimum Cutting Temperature (Tissue Tek, Torrance, CA, USA) and 16-μm-thick sections were obtained with a Leica CM3050 cryostat (Leica Microsystems, Buffalo Grove, IL, USA), and mounted on slides. Slides were fixed and incubated with blocking buffer for 1 hour at room temperature. […]

[3] = tested on: NRF2 knockout A549 cells (2-11); experiment: MTS cell proliferation assay after drug exposure, NRF2 knockout cells; type: cell-based, human; details: 2-11 knockout A549 cells, 72 hours; for chemosensitivity (MTS proliferation): increasing dosages
Procedure: (§1) Cell viability was evaluated using the CellTiter 96 Aqueous Non-Radioactive Cell Proliferation Assay (Promega, Madison, WI). A549 cell lines were plated at 2×10^3 cells per well and allowed to culture for 24 hours. The cell media was then aspirated, the cells washed with PBS, then exposed to the MTS reagent for 3 hours. After 3 hours of MTS bio-reduction by proliferating cells, the formazan product's absorbance was measured using a 450 nm filter on an Infinite 2000 PRO microplate reader (Tecan, Mannadorf, Switzerland). Cell viability after drug exposure was evaluated using the CellTiter 96 Aqueous Non-Radioactive Cell Proliferation Assay. A549 cell lines were plated at 2×10^3 cells per well and allowed to culture for 24 hours. The cells were then treated with cisplatin, carboplatin, or a combination of cisplatin and vinorelbine for three days. The cell media was then aspirated, the cells washed with PBS, then exposed to the MTS reagent for 3 hours. After 3 hours of MTS bio-reduction by proliferating cells, the formazan product's absorbance was measured using a 450 nm filter on an Infinite 2000 PRO microplate reader.

[4] = tested on: wild type A549 cells; experiment: MTS cell proliferation assay after drug exposure, wild type cells; type: cell-based, human
Procedure: as §1

5′-UCGAUGUGACCGGGAAUAUCAGG (listed as RNA, chemistry not fully specified) [gRNA1]
indels (TIDE), NRF2 disruption [1]: significant amount of indels

5′-UGAUUUAGACGGUAUGCAACAGG (listed as RNA, chemistry not fully specified) [gRNA2]
indels (TIDE), NRF2 disruption [1]: significant amount of indels

N.N.O=C([O-])C1(C(=O)[O-])CCC1.[Pt+2] [carboplatin]
tumor growth ([2]; 25 mg/kg carboplatin tail vein on day 0, 3, 6, 9): same reduced proliferation and growth trend described above is reproduced
chemosensitivity (MTS proliferation) ([3]; listed as Carboplatin): reflected what was observed in the experiments using cisplatin

N.N.[Cl][Pt][Cl] [cisplatin]
tumor growth ([2]; cisplatin 2 mg/kg tail vein on day 0, 3, 6, 9): proliferation of the implanted cells is arrested; also recorded: smallest tumors
Ki67 staining of xenograft tumors ([2]; cisplatin 2 mg/kg, tumors resected day 16, compared to saline): even lower levels of Ki67
concentration up to which a slight increase in cell proliferation is seen ([4]; wild type A549, 72 hours): up to 3 μM
final concentration at which proliferation is adversely affected ([4]; wild type A549, 72 hours): 5 µM and 10 µM
response of cell proliferation to drug (MTS) ([4]; wild type A549, increasing dosages, 72 hours): resistant to high dosages of Cisplatin
concentration at and above which proliferation is lost [3]: ≥ 1 µM
chemosensitivity (MTS proliferation) [3]: increase in chemosensitivity in a dose-dependent fashion
